What follows are compounds tested on HBV (assay: HBV-DNA Antiviral Assay Using HepG2.117 Cells (intracellular HBV DNA by qPCR)). Conditions: HBV DNA inhibition, HepG2.117 cells, intracellular HBV DNA by qPCR (Table 4); read-out: EC50.
Format: cell-based, hepatitis B virus (genotype D)
Outline: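 Endpoint: qPCR copy number of intracellular HBV DNA after 3-day compound exposure, with inhibition set relative to the 2% DMSO control. The cells were doxycycline-free HepG2.117 carrying a Tet-off genotype D genome, dosed at nine 4-fold dilutions. A duplicate plate gave ATP-based viability (CC50).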

With “13-benzyl-4-(4-bromo-3-chloro- benzoyl)-11-methylene-4,7,9,13- tetrazatricyclo[7.5.0.0^2,7]tetradec-1- ene-8.14-dione [Example 109]” as the compound, how does the EC50 read?
The EC50 was 0.1 to 0.5 µM.

Same assay, conditions: Hepatitis B virus, HepG2.117

Which EC50 does the source give for `O=C(NCc1c(F)ccc2nccnc12)c1c2n(c(=O)n1-c1ccc(OC3CC3)cc1)CCN(C(=O)c1ccc(Br)c(Cl)c1)C2` [Example 461, 7-(4-bromo-3-chloro-benozyl)-2-[4-(cyclopropoxy)phenyl]-N-[(6-fluoroquinoxalin-5-yl)methyl]-3-oxo-6,8-dihydro-5H-imidazo[1,5-a]pyrazine-1-carboxamide] here?
Its EC50 is < 0.1 µM.

`C[C@@H]1Cn2c(c(C(=O)N[C@H](C)c3ccccc3F)n(-c3ccc(OC4CC4)cc3)c2=O)CN1C(=O)c1ccc(Br)c(Cl)c1` (mixture of isomers) [Example 335, (6RS)-7-(4-bromo-3-chloro-benzoyl)-2-[4-(cyclopropoxy)phenyl]-N-[(1S)-1-(2-fluorophenyl)ethyl]-6-methyl-3-oxo-6,8-dihydro-5H-imidazo[1,5-a]pyrazine-1-carboxamide] was tested. Which EC50 did it give?
The EC50 was 0.5 to 5 µM.

With `O=C(NCc1ccccc1-c1cocn1)c1c2n(c(=O)n1-c1ccc(OC3CC3)cc1)CCN(C(=O)c1ccc(Br)c(Cl)c1)C2` [Example 398, 7-(4-bromo-3-chloro-benzoyl)-2-[4-(cyclopropxy)phenyl]-N-[(2-oxazol-4-ylphenyl)methyl]-3-oxo-6,8-dihydro-5H-imidazo[1,5-a]pyrazine-1-carboxamide] as the compound, how does the EC50 read?
Its EC50 is < 0.1 µM.

With `C[C@H](NC(=O)c1c2n(c(=O)n1C)CCN(C(=O)c1ccc(Br)c(Cl)c1)C2)c1ccccc1` (stereo in doubt) [Example 112, 7-(4-bromo-3-chloro-benzoyl)-2-methyl-3-oxo-N-[rac-(1S)-1-phenylethyl]-6,8-dihydro-5H-imidazo[1,5-a]pyrazine-1-carboxamide] as the compound, how does the EC50 read?
Its EC50 is > 5 µM.

`COc1ccc(-n2c(C(=O)NCc3ccccc3)c3n(c2=O)C[C@H](C2CC2)N(C(=O)c2ccc(Br)c(Cl)c2)C3)cc1` (racemic) [Example 279, rac-(6S)-N-benzyl-7-(4-bromo-3-chloro-benzoyl)-6-cyclopropyl-2-(4-methoxyphenyl)-3-oxo-6,8-dihydro-5H-imidazo[1,5-a]pyrazine-1-carboxamide] was tested. Which EC50 did it give?
The EC50 was 0.1 to 0.5 µM.

How did the EC50 turn out when `COc1ccc(-n2c(C(=O)NCc3ccc(OCC(N)=O)cc3)c3n(c2=O)CCN(C(=O)c2ccc(Br)c(Cl)c2)C3)cc1` [Example 205, N-[[4-(2-amino-2-oxo-ethoxy)phenyl]methyl]-7-(4-bromo-3-chloro-benzoyl)-2-(4-methoxyphenyl)-3-oxo-6,8-dihydro-5H-imidazo[1,5-a]pyrazine-1-carboxamide] was run?
The EC50 was 0.5 to 5 µM.

`COc1ccc(-n2c(C(=O)N[C@H](C(N)=O)c3ccccc3)c3n(c2=O)CCN(C(=O)c2ccc(Br)c(Cl)c2)C3)cc1` (racemic) [Example 207, 7-(4-bromo-3-chloro-benzoyl)-2-(4-methoxyphenyl)-3-oxo-N-[rac-(1S)-2-amino-2-oxo-1-phenyl-ethyl]-6,8-dihydro-5H-imidazo[1,5-a]pyrazine-1-carboxamide] was tested. Which EC50 did it give?
The EC50 was > 5 µM.

How did the EC50 turn out when `O=C(NCc1ccccc1-c1nnco1)c1c2n(c(=O)n1-c1ccc(OC3CC3)cc1)CCN(C(=O)c1ccc(Br)c(Cl)c1)C2` [Example 434, 7-(4-bromo-3-chloro-benzoyl)-2-[4-(cyclopropoxy)phenyl]-N-[[2-(1,3,4-oxadiazol-2-yl)phenyl]methyl]-3-oxo-6,8-dihydro-5H-imidazo[1,5-a]pyrazine-1-carboxamide] was run?
The EC50 was < 0.1 µM.

With `COc1ccc([C@H](C)NC(=O)c2c3n(c(=O)n2-c2ccc(OC4CC4)cc2)CC(C)N(C(=O)c2ccc(Br)c(Cl)c2)C3)cc1` (mixture of isomers) [Example 437, (6RS)-7-(4-bromo-3-chloro-benzoyl)-2-[4-(cyclopropoxy)phenyl]-N-[(1S)-1-(4-methoxyphenyl)ethyl]-6-methyl-3-oxo-6,8-dihydro-5H-imidazo[1,5-a]pyrazine-1-carboxamide] as the compound, how does the EC50 read?
Its EC50 is 0.5 to 5 µM.

With `O=C(NCc1ccccc1-c1cccnn1)c1c2n(c(=O)n1-c1ccc(OCC(F)(F)F)cc1)CCN(C(=O)c1ccc(Br)c(Cl)c1)C2` [Example 388, 7-(4-bromo-3-chloro-benzoyl)-3-oxo-N-[(2-pyridazin-3-ylphenyl)methyl]-2-[4-(2,2,2-trifluoroethoxy)phenyl]-6,8-dihydro-5H-imidazo[1,5-a]pyrazine-1-carboxamide] as the compound, how does the EC50 read?
Its EC50 is < 0.1 µM.

For `COc1ccc(-n2c(C(=O)NCc3ccc4c(c3)OCO4)c3n(c2=O)CCN(C(=O)c2ccc(Br)c(Cl)c2)C3)cc1` [Example 182, N-(1,3-benzodioxol-5-ylmethyl)-7-(4-bromo-3-chloro-benzoyl)-2-(4-methoxyphenyl)-3-oxo-6,8-dihydro-5H-imidazo[1,5-a]pyrazine-1-carboxamide], which EC50 is on record?
The EC50 was 0.1 to 0.5 µM.

With `COc1ccc(-n2c(C(=O)NCc3ccccc3)c3n(c2=O)CC(C)N(C(=O)c2ccc(Br)c(Cl)c2)C3)cc1` (racemic) [Example 198, rac-(6R)-N-benzyl-7-(4-bromo-3-chloro-benzoyl)-2-(4-methoxyphenyl)-6-methyl-3-oxo-6,8-dihydro-5H-imidazo[1,5-a]pyrazine-1-carboxamide] as the compound, how does the EC50 read?
The EC50 was 0.5 to 5 µM.

With `C[C@@H](NC(=O)c1c2n(c(=O)n1-c1ccc(OCC(F)(F)F)cc1)CCN(C(=O)c1ccc(Br)c(Cl)c1)C2)c1ccc(OC(F)F)cc1F` (stereo in doubt) [Example 317, 7-(4-bromo-3-chloro-benzoyl)-3-oxo-N-[rac-(1R)-1-[4-(difluoromethoxy)-2-fluoro-phenyl]ethyl]-2-[4-(2,2,2-trifluoroethoxy)phenyl]-6,8-dihydro-5H-imidazo[1,5-a]pyrazine-1-carboxamide] as the compound, how does the EC50 read?
Its EC50 is 0.5 to 5 µM.

For `C[C@H](NC(=O)c1c2n(c(=O)n1-c1ccc(OCC(F)(F)F)cc1)CCN(C(=O)c1ccc(Br)c(Cl)c1)C2)c1ccc(C#N)cc1F` (racemic) [Example 299, 7-(4-bromo-3-chloro-benzoyl)-3-oxo-N-[rac-(1R)-1-(4-cyano-2-fluoro-phenyl)ethyl]-2-[4-(2,2,2-trifluoroethoxy)phenyl]-6,8-dihydro-5H-imidazo[1,5-a]pyrazine-1-carboxamide], which EC50 is on record?
Its EC50 is 0.5 to 5 µM.

`COc1cc(CNC(=O)c2c3n(c(=O)n2-c2ccc(OC(C)C)cc2)CCN(C(=O)c2ccc(Br)c(Cl)c2)C3)ccc1C#N` [Example 211, 7-(4-bromo-3-chloro-benzoyl)-N-[(4-cyano-3-methoxy-phenyl)methyl]-2-(4-isopropxoyphenyl)-3-oxo-6,8-dihydro-5H-imidazo[1,5-a]pyrazine-1-carboxamide] was tested. Which EC50 did it give?
Its EC50 is 0.5 to 5 µM.

For `COc1ccc(CN2C[C@@H](O)Cn3c(c4n(c3=O)CCN(C(=O)c3ccc(Br)c(Cl)c3)C4)C2=O)cc1` (stereo in doubt) [Example 193, rac-(11R)-4-(4-bromo-3-chloro-benzoyl)-11-hydroxy-13-[(4-methoxyphenyl)methyl]-4,7,9,13-tetrazatricyclo[7.5.0.0^2,7]tetradec-1-ene-8,14-dione], which EC50 is on record?
Its EC50 is 0.1 to 0.5 µM.

How did the EC50 turn out when `N#CCOc1ccc(CNC(=O)c2c3n(c(=O)n2-c2ccc(OCC(F)(F)F)cc2)CCN(C(=O)c2ccc(Br)c(Cl)c2)C3)c(F)c1` [Example 326, 7-(4-bromo-3-chloro-benzoyl)-N-[[4-(cyanomethoxy)-2-fluoro-phenyl]methyl]-3-oxo-2-[4-(2,2,2-trifluoroethoxy)phenyl]-6,8-dihydro-5H-imidazo[1,5-a]pyrazine-1-carboxamide] was run?
The EC50 was 0.1 to 0.5 µM.

How did the EC50 turn out when `COc1ccc(-n2c(C(=O)NCc3cccc(OC)c3C)c3n(c2=O)CCN(C(=O)c2ccc(Br)c(Cl)c2)C3)cc1` [Example 155, 7-(4-bromo-3-chloro-benzoyl)-N-[(3-methoxy-2-methyl-phenyl)methyl]-2-(4-methoxyphenyl)-3-oxo-6,8-dihydro-5H-imidazo[1,5-a]pyrazine-1-carboxamide] was run?
Its EC50 is 0.1 to 0.5 µM.

For `C[C@H](NC(=O)c1c2n(c(=O)n1-c1ccc(OCC(F)(F)F)cc1)CCN(C(=O)c1ccc(Br)c(Cl)c1)C2)c1ccc(OCC(N)=O)cc1F` (stereo in doubt) [Example 320, 7-(4-bromo-3-chloro-benzoyl)-3-oxo-N-[rac-(1S)-1-[4-(2-amino-2-oxo-ethoxy)-2-fluoro-phenyl]ethyl]-2-[4-(2,2,2-trifluoroethoxy)phenyl]-6,8-dihydro-5H-imidazo[1,5-a]pyrazine-1-carboxamide], which EC50 is on record?
Its EC50 is 0.1 to 0.5 µM.

Which EC50 does the source give for `C[C@H](NC(=O)c1c2n(c(=O)n1-c1ccc(OCC(F)(F)F)cc1)CCN(C(=O)c1ccc(Br)c(Cl)c1)C2)c1ccc(OCC#N)cc1F` (stereo in doubt) [Example 345, 7-(4-bromo-3-chloro-benzoyl)-3-oxo-N-[rac-(1S)-1-[4-(cyanomethoxy)-2-fluoro-phenyl]ethyl]-2-[4-(2,2,2-trifluoroethoxy)phenyl]-6,8-dihydro-5H-imidazo[1,5-a]pyrazine-1-carboxamide] here?
The EC50 was 0.1 to 0.5 µM.

For `C[C@H](NC(=O)c1c2n(c(=O)n1-c1ccc(OCC(F)(F)F)cc1)CCN(C(=O)c1ccc(Br)c(Cl)c1)C2)c1ccccc1` (stereo in doubt) [Example 127, 7-(4-bromo-3-chloro-benzoyl)-3-oxo-N-[rac-(1S)-1-phenylethyl]-2-[4-(2,2,2-trifluoroethoxy)phenyl]-6,8-dihydro-5H-imidazo[1,5-a]pyrazine-1-carboxamide], which EC50 is on record?
The EC50 was 0.5 to 5 µM.

For `COc1ccc(-n2c(C(=O)NCc3ccc4[nH]c(=O)[nH]c4c3)c3n(c2=O)CCN(C(=O)c2ccc(Cl)c(Cl)c2)C3)cc1` [Example 93, 7-(3,4-dichlorobenzoyl)-2-(4-methoxyphenyl)-3-oxo-N-[(2-oxo-1,3-dihydrobenzimidazol-5-yl)methyl]-6,8-dihydro-5H-imidazo[1,5-a]pyrazine-1-carboxamide], which EC50 is on record?
The EC50 was > 5 µM.

For `C[C@H](NC(=O)c1c2n(c(=O)n1-c1ccccc1)CCN(C(=O)c1ccc(Br)c(Cl)c1)C2)c1ccccc1` (stereo in doubt) [Example 38, 7-(4-bromo-3-chloro-benzoyl)-3-oxo-2-phenyl-N-[rac-(1S)-1-phenylethyl]-6,8-dihydro-5H-imidazo[1,5-a]pyrazine-1-carboxamide], which EC50 is on record?
The EC50 was 0.5 to 5 µM.
